Earlier results in publication PMC10591956 (Journal of controlled release : official journal of the …, 2023).

System: intraocular pressure (IOP)
Settings: single intracameral injection, normotensive rabbits

Brc1c(NC2=NCCN2)ccc2nccnc12 [brimonidine]
duration of IOP reduction: 7 days
